# Measured values published in ChEMBL document CHEMBL1144193, “Design, synthesis, and evaluation of novel aryl-tetrahydropyridine PPARalpha/gamma dual agonists” (Bioorg Med Chem Lett, 2008).
# Legend:
# [1] = biological target: T1, Peroxisome proliferator-activated receptor gamma (Homo sapiens, UniProt P37231)
# T1 sequence (P37231 whole entry): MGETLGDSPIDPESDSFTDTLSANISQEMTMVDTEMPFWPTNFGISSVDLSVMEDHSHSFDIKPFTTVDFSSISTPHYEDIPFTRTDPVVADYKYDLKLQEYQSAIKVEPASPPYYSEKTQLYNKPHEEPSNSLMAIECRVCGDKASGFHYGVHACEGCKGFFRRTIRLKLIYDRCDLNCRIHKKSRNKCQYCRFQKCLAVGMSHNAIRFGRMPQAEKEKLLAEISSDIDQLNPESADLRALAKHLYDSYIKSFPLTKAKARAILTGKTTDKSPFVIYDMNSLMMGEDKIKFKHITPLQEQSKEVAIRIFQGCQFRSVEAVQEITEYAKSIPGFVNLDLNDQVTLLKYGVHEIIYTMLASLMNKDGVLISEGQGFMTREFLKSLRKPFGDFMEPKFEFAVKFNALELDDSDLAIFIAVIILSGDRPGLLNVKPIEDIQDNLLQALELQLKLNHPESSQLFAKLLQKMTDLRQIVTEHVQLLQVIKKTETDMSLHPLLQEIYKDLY
# Description: Agonist activity at human PPARgamma expressed in african green monkey CV-1 co-transfected with GAL4 by dual-glo luciferase reporter gene assay
# [2] = biological target: T2, Peroxisome proliferator-activated receptor alpha (Homo sapiens, UniProt Q07869); experiment: Agonist activity at human PPARalpha expressed in african green monkey CV-1 by co-transfected with GAL4 by dual-glo luciferase reporter gene assay; format: functional
# T2 sequence (Q07869 whole entry): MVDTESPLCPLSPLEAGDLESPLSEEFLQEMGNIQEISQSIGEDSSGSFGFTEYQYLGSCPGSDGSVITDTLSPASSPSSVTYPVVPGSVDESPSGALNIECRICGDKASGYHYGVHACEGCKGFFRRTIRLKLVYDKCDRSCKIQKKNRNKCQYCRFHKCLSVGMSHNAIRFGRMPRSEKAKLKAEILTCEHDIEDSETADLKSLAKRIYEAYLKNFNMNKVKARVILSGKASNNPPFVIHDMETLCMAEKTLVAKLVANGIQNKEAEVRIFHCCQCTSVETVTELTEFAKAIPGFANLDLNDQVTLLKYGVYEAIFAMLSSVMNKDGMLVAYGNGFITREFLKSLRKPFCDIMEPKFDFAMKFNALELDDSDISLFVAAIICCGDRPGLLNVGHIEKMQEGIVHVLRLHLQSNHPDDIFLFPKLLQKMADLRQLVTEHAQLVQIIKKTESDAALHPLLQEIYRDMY
# Mus musculus [3] = experiment: Antihyperglycemic activity in po dosed db/db mouse assessed as reduction in glucose level after 28 days; format: functional; details: 672 h
# [4] = AUC (0 to 24 hrs) in Sprague-Dawley rat at 3 mg/kg, iv; format: ADME, organism-based; design: time < 24 hr, dose 3 mg/kg, route intravenous; details: plasma
# Mus musculus [5] = experiment: Antihyperglycemic activity in db/db mouse assessed as increase in body weight at 3 mg/kg, po once daily after 28 days
# [6] = AUC (0 to 24 hrs) in Sprague-Dawley rat at 3 mg/kg, po; format: ADME, organism-based; design: time < 24 hr, dose 3 mg/kg, route oral; details: plasma
# [7] = Half life in Sprague-Dawley rat at 3 mg/kg, iv; format: ADME, organism-based; design: dose 3 mg/kg, route intravenous; details: in vivo
# Mus musculus [8] = experiment: Antihyperglycemic activity in db/db mouse assessed as increase in body weight at 1 mg/kg, po once daily after 28 days; format: functional
# Mus musculus [9] = experiment: Antihyperglycemic activity in db/db mouse assessed as increase in body weight at 0.3 mg/kg, po once daily after 28 days; format: functional
# Mus musculus [10] = experiment: Antihyperglycemic activity in db/db mouse assessed as reduction in plasma glucose level at 0.1 mg/kg, po once daily after 28 days relative to non-fasting control; format: functional; design: scale not given: the % may be the effect or the level left
# [11] = Oral bioavailability in Sprague-Dawley rat at 3 mg/kg; format: ADME, organism-based; details: in vivo
# [12] = Clearance in Sprague-Dawley rat at 3 mg/kg, iv; format: ADME, organism-based; design: dose 3 mg/kg, route intravenous; details: in vivo
# [13] = Cmax in Sprague-Dawley rat at 3 mg/kg, po; format: ADME, organism-based; design: dose 3 mg/kg, route oral; details: in vivo
# Mus musculus [14] = experiment: Antihyperglycemic activity in db/db mouse assessed as reduction in plasma glucose level at 0.3 mg/kg, po once daily after 28 days relative to non-fasting control; format: functional; design: scale not given: the % may be the effect or the level left
# [15] = Solubility at pH 6.8; format: physicochemical; details: buffer
# Mus musculus [16] = experiment: Antihyperglycemic activity in db/db mouse assessed as reduction in plasma glucose level at 1 mg/kg, po once daily after 28 days relative to non-fasting control; format: functional; design: scale not given: the % may be the effect or the level left
# Mus musculus [17] = experiment: Antihyperglycemic activity in db/db mouse assessed as increase in body weight at 0.1 mg/kg, po once daily after 28 days; format: functional
# [18] = Tmax in Sprague-Dawley rat at 3 mg/kg, po; format: ADME, organism-based; design: dose 3 mg/kg, route oral; details: in vivo
# Mus musculus [19] = experiment: Antihyperglycemic activity in db/db mouse assessed as reduction in plasma glucose level at 3 mg/kg, po once daily after 28 days relative to non-fasting control; design: scale not given: the % may be the effect or the level left
Compound,EC50 [1] [µM],EC50 [2] [µM],further results
CCCc1ccc(C2=CCN(CCOc3ccc(CC(OCC)C(=O)O)cc3)CC2)cc1 (centres undefined),0.174,2.08,–
CCOC(Cc1ccc(OCCCN2CC=C(c3ccc(Cl)c(Cl)c3)CC2)cc1)C(=O)O (centres undefined),0.728,1.7,–
CCOC(Cc1ccc(OCCN2CC=C(c3ccc(CC)cc3)CC2)cc1)C(=O)O (centres undefined),0.689,7.58,–
CCOC(Cc1ccc(OCCN2CC=C(c3ccccn3)CC2)cc1)C(=O)O (centres undefined),2.3,10.2,–
CC(C)(Oc1cccc(OCCN2CC=C(c3ccc(Cl)cc3)CC2)c1)C(=O)O,18.8,0.331,–
CCO[C@@H](Cc1ccc(OCCN2CC=C(c3ccc(Cl)c(Cl)c3)CC2)cc1)C(=O)O,0.862,0.615,–
CCOC(Cc1ccc(OCCN2CC=C(c3cc(Cl)ccc3Cl)CC2)cc1)C(=O)O (centres undefined),1.44,1.12,–
CCOC(Cc1ccc(OCCN2CC=C(c3cccs3)CC2)cc1)C(=O)O (centres undefined),3.3,8.58,–
CCOC(Cc1ccc(OCCN2CC=C(c3cc(Cl)cc(Cl)c3)CC2)cc1)C(=O)O (centres undefined),1.42,2.99,–
CCOC(Cc1ccc(OCCN2CC=C(c3cccc(Cl)c3Cl)CC2)cc1)C(=O)O (centres undefined),0.661,0.064,–
CCOC(Cc1ccc(OCCCN2CC=C(c3ccc(C(F)(F)F)cc3)CC2)cc1)C(=O)O (centres undefined),0.504,9.79,–
CCOC(Cc1ccc(OCCN2CC=C(c3cccc(OC)c3)CC2)cc1)C(=O)O (centres undefined),2.38,17.3,–
CCOC(Cc1ccc(OCCN2CC=C(c3ncccn3)CC2)cc1)C(=O)O (centres undefined),4.6,7.67,–
CN(CCOc1ccc(CC2SC(=O)NC2=O)cc1)c1ccccn1 (centres undefined) [ROSIGLITAZONE],–,–,ED30 (Mus musculus [3]): 0.21 mg/kg; AUC(0-t) at 24 h [4]: 53.7 µM·h; Activity (Mus musculus [5]): 13.9 g; AUC(0-t) at 24 h [6]: 94.2 µM·h; half-life [7]: 63 min; Activity (Mus musculus [8]): 12.5 g; Activity (Mus musculus [9]): 11.1 g; Activity (Mus musculus [10]): 17%; bioavailability [11]: > 100%; clearance [12]: 2.99 mL/min/kg; Cmax [13]: 44.3 µM; Activity (Mus musculus [14]): 37%; solubility [15]: 14 µg/mL; Activity (Mus musculus [16]): 56%; Activity (Mus musculus [17]): 10.5 g; Tmax [18]: 15 min; Activity (Mus musculus [19]): 68%
CCOC(Cc1ccc(OCCN2CC=C(c3ccc(F)cc3)CC2)cc1)C(=O)O (centres undefined),3.72,2.23,–
CCOC(Cc1ccc(OCCN2CC=C(c3cccc(Cl)c3)CC2)cc1)C(=O)O (centres undefined),1.67,3.24,–
CC(C)(Oc1ccc(OCCN2CC=C(c3ccc(Cl)cc3)CC2)cc1)C(=O)O,22.8,0.868,–
